These are literature values, as cited in patent US20220168203A1, “METHOD FOR PREPARING HAIR TREATMENTS AGENTS WITH ORGANIC C1-C6 ALKOXY-SILANES” (Henkel AG & Co. KGaA, priority 2019, published 2022).

The conditions of this series: 25° C.

As to `O=S(=O)(O)c1ccc(N=Nc2c(O)ccc3ccccc23)cc1` [Acid Orange 7, 4-[(2-hydroxy-1-naphthyl)azo]benzene sulphonate], the solubility in water result is “more than 7 g/L”.

`O=[N+]([O-])c1cc([N+](=O)[O-])c2ccc(S(=O)(=O)O)cc2c1O` [Acid Yellow 9, 8-hydroxy-5,7-dinitro-2-naphthalenesulfonic acid]: the solubility in water result is listed as “above 40 g/L”.

With `O=C(O)C1=NN(c2ccc(S(=O)(=O)O)cc2)C(=O)C1N=Nc1ccc(S(=O)(=O)O)cc1` (stereo not shown) [Acid Yellow 23, 4,5-dihydro-5-oxo-1-(4-sulfophenyl)-4-((4-sulfophenyl)azo)-1H-pyrazole-3-carboxylic acid], the “solubility in water (in words)” value is “highly soluble”.

In the case of Acid Yellow 3, the solubility in water was 20 mg/mL.
